Measurements: patent publication US9573954B2, “Pyrazolopyrimidine compounds” (University Health Network, priority 2012, dated 2017)
Like-named read-outs stand apart in the source and are kept apart here. Each block holds one molecule with its values, some of them ahead of it.

What was measured:
[1] = tested on: colon cancer cells (HCT116); experiment: Cancer cell line growth inhibition, Sulforhodamine B assay, HCT116; format: cell-based; conditions: Homo sapiens, HCT-116, HCT116 colon cancer cell line; read-out: Cancer Cell Line GI50 Range HCT116
Summary of the method: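 GI50 is calculated from growth inhibition relative to DMSO controls, using TCA-fixed, SRB-stained protein mass read at 570 nm. Compound, 10 nM–50 μM final in 10% FBS DMEM, was applied for 5 days to HCT116 cells that had been plated 24 h before at 1000–4000/well.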

[2] = tested on: ovarian cancer cells (OVCAR-3); experiment: Cancer cell line growth inhibition, Sulforhodamine B assay, OVCAR-3; format: cell-based; conditions: Homo sapiens, OVCAR-3, OVCAR-3 ovarian cancer cell line; read-out: Cancer Cell Line GI50 Range OVCAR-3
Summary of the method: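 OVCAR-3 cells were seeded 24 h before compound addition, then exposed for 5 days to final concentrations of 10 nM to 50 μM in DMEM with 10% FBS. Growth was measured by TCA fixation and sulforhodamine B staining with absorbance at 570 nm. Inhibition was relative to DMSO-only cells, and GI50 came from curve fitting.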

[3] = tested on: breast cancer cells (MDA-MB-468); experiment: Cancer cell line growth inhibition, Sulforhodamine B assay, MDA-MB-468; format: cell-based; conditions: Homo sapiens, MDA-MB-468, MDA-MB-468 breast cancer cell line; read-out: Cancer Cell Line GI50 Range MDA-MB-468
Summary of the method: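 Sulforhodamine B staining (TCA-fixed, read at 570 nm) estimates cell mass after 5-day compound treatment of MDA-MB-468 cells, final concentrations 10 nM to 50 μM in 10% FBS DMEM. GI50 derived from growth inhibition versus DMSO controls.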

[4] = tested on: Ovarian 2393A tumor initiating cells; experiment: Tumor-initiating cell growth inhibition, Alamar Blue assay, ovarian TICs; format: cell-based; conditions: 144 h; Ovarian 2393A TICs, 6 days; read-out: Tumor Initiating Cell GI50 Range Ovarian 2393A
Description: (§1) Non-tissue or tissue cultured treated T-75 flask and 96-well plates were purchased from VWR. Vitamin B-27 supplement, MEM NEAA (minimum essential medium non essential amino acids), sodium pyruvate, L-glutamine, N2 supplement, penicillin-streptomycin and fungizone/amphotericin B were obtained from Invitrogen. Lipid mixture, heparin and EGF were purchased from Sigma; bFGF from BD Biosciences. Tumor Initiating Cells (TICs) from colon were routinely maintained using non-tissue cultured treated T-75 flasks in DMEM:F12 medium containing 0.2XB-27 supplement, 4 ug/ml heparin, 1×MEM NEAA, 1×sodium pyruvate, 1 mM glutamine, 10 pg/ul bFGF, 20 pg/ul EGF, 1× N2 supplement, lipid mixture, penicillin-streptomycin and fungizone/amphotericin B. Ovarian TICs were routinely maintained using tissue cultured treated T-75 flasks in DMEM:F12 medium containing IXB-27 supplement, 4 ug/ml heparin, 20 pg/ul bFGF, 20 pg/ul EGF and penicillin-streptomycin.
(§2) Compounds described herein were dissolved in DMSO and further diluted in cell culture medium for GI50 determination. Colon TICs were trypsinized and seeded into non-tissue cultured treated 96-well plates with 4,000 cells/well. After 24 h, compound was added into the cell culture at different concentrations, and the final concentration of DMSO was adjusted to 0.1%. Cells were then cultured at 37° C. for 9 days. Ovarian TICs were trypsinized and seeded into tissue cultured treated 96-well plates with 1,000 cells/well. After 24 h, compound was added into the cell culture at different concentrations, and the final concentration of DMSO was adjusted to 0.1%. Cells were then cultured at 37° C. for 6 days. Cell viability was assessed by Alamar Blue assay: 10 ul of Alamar Blue was added into each well. After 4 hours incubation at 37° C., fluorescence was recorded at excitation 544 and emission 590. GI50 (Growth inhibition) was calculated using GraphPad Prism 4.0 software.
(§3) In Table 1 below, GI50 value ranges for compound examples against TICs (Colon 12 and Ovarian 2393A) are given.

[5] = tested on: Colon 12 tumor initiating cells; experiment: Tumor-initiating cell growth inhibition, Alamar Blue assay, colon TICs; format: cell-based; conditions: 216 h; Colon 12 TICs, 9 days; read-out: Tumor Initiating Cell GI50 Range Colon 12
Description: as §1, §2, §3

human TTK = biological target: T1, human TTK (Homo sapiens, UniProt P33981); experiment: TTK inhibition assay (indirect ELISA); format: biochemical
T1 construct: Active TTK was purchased from Invitrogen as an amino terminal GST fusion of full length human TTK; purchased Invitrogen
T1 sequence (P33981 1-857): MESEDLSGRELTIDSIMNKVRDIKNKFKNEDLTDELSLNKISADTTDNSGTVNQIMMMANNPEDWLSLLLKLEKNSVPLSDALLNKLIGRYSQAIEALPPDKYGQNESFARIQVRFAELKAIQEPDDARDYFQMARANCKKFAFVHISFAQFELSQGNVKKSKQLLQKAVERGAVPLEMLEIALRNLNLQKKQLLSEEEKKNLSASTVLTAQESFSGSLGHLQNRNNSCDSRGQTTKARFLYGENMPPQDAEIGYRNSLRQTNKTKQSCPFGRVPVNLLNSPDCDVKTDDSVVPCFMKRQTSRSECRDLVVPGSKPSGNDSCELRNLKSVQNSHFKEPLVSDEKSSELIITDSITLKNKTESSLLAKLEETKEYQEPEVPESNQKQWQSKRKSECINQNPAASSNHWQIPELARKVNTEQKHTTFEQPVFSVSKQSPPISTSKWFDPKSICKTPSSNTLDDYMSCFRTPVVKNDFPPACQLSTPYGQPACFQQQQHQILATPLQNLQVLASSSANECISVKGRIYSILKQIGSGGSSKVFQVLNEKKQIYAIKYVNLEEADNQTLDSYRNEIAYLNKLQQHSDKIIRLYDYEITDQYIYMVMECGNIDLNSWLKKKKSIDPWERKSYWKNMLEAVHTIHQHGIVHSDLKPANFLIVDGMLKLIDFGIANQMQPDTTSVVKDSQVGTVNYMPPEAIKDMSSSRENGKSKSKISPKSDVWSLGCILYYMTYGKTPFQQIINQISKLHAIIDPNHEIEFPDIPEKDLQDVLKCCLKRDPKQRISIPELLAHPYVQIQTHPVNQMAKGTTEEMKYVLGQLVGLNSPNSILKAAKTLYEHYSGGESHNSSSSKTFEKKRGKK
Summary of the method: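 Activity detected by indirect ELISA after compounds sat with full-length GST-TTK for 5 min prior to starting the reaction with ATP. IC50 came from a four-parameter logistic curve of % inhibition, calculated against background and uninhibited control wells.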

[6] = 100 μM ATP, read-out: TTK IC50 Range
[7] = 16 μM ATP (Sigma cat# A7699), read-out: TTK IC50 Range (denoted with an asterisk)

SMILES: Cc1cc(-c2cnn3c(NCC4CCN(C)CC4)cc(Oc4cccc(F)c4)nc23)ccc1C(=O)NC1CC1 [Example C46, N-cyclopropyl-4-(5-(3-fluorophenoxy)-7-(((1-methylpiperidin-4-yl)methyl)amino)pyrazolo[1,5-a]pyrimidin-3-yl)-2-methylbenzamide]
GI50 [1]: ≤ 100 nM
GI50 [2]: 100 to 500 nM
GI50 [3]: ≤ 100 nM
GI50 [4]: ≤ 100 nM
GI50 [5]: ≤ 100 nM
IC50 (human TTK; [6]): < 100 nM

SMILES: Cc1cc(-c2cnn3c(NC[C@H]4CC[C@@H](O)CC4)cc(Oc4cccnc4)nc23)ccc1C(=O)NC1CC1 [Example C176]
GI50 [1]: ≤ 100 nM
GI50 [2]: ≤ 100 nM
GI50 [3]: ≤ 100 nM
GI50 [4]: ≤ 100 nM
GI50 [5]: ≤ 100 nM
IC50 (human TTK; [6]): < 100 nM

SMILES: COc1ccc(Oc2nc(NCC3CCOCC3)n3ncc(-c4ccc(C(=O)NC5CC5)c(C)c4)c3n2)c(F)c1 [Example C25]
GI50 [1]: ≤ 100 nM
GI50 [2]: 100 to 500 nM
GI50 [3]: 100 to 500 nM
GI50 [4]: 100 to 500 nM
GI50 [5]: ≤ 100 nM
IC50 (human TTK; [7]): < 100 nM

SMILES: Cc1cc(-c2cnn3c(NCC4COC4)cc(Oc4cccnc4)nc23)ccc1C(=O)NC1CC1 [Example C100]
GI50 [1]: 100 to 500 nM
GI50 [2]: 100 to 500 nM
GI50 [3]: 100 to 500 nM
GI50 [4]: ≤ 100 nM
GI50 [5]: ≤ 100 nM
IC50 (human TTK; [6]): < 100 nM

SMILES: Cc1cc(-c2cnn3c(NCCN4CCOCC4)cc(Oc4cccc(F)c4)nc23)ccc1C(=O)NC1CC1 [Example C31, N-cyclopropyl-4-(5-(3-fluorophenoxy)-7-((2-morpholinoethyl)amino)pyrazolo[1,5-a]pyrimidin-3-yl)-2-methylbenzamide]
GI50 [1]: ≤ 100 nM
GI50 [2]: ≤ 100 nM
GI50 [3]: ≤ 100 nM
GI50 [4]: ≤ 100 nM
GI50 [5]: ≤ 100 nM
IC50 (human TTK; [6]): < 100 nM

SMILES: Cc1cc(-c2cnn3c(NCCN4CCOCC4)nc(Oc4cccc(F)c4F)nc23)ccc1C(=O)NC1CC1 [Example C26]
GI50 [1]: ≤ 100 nM
GI50 [2]: 100 to 500 nM
GI50 [3]: 100 to 500 nM
GI50 [4]: ≤ 100 nM
GI50 [5]: ≤ 100 nM
IC50 (human TTK; [7]): < 100 nM

SMILES: Cc1cc(-c2cnn3c(NCC4CCOCC4)nc(Oc4ccccc4F)nc23)ccc1C(=O)NC1CC1 [Example C20]
GI50 [1]: ≤ 100 nM
GI50 [2]: 100 to 500 nM
GI50 [3]: 100 to 500 nM
GI50 [4]: 100 to 500 nM
GI50 [5]: ≤ 100 nM
IC50 (human TTK; [7]): < 100 nM

SMILES: Cc1cc(-c2cnn3c(NCCN4CCOCC4)cc(Oc4cccc(F)c4F)nc23)ccc1C(=O)NC1CC1 [Example C32, N-cyclopropyl-4-(5-(2,3-difluorophenoxy)-7-((2-morpholinoethyl)amino)pyrazolo[1,5-a]pyrimidin-3-yl)-2-methylbenzamide]
GI50 [1]: ≤ 100 nM
GI50 [2]: ≤ 100 nM
GI50 [3]: ≤ 100 nM
GI50 [4]: ≤ 100 nM
GI50 [5]: ≤ 100 nM
IC50 (human TTK; [6]): < 100 nM

SMILES: Cc1cc(-c2cnn3c(NCC4CCOCC4)nc(Oc4cccc(F)c4)nc23)ccc1C(=O)NC1CC1 [Example C21]
GI50 [1]: ≤ 100 nM
GI50 [2]: ≤ 100 nM
GI50 [3]: ≤ 100 nM
GI50 [4]: ≤ 100 nM
GI50 [5]: ≤ 100 nM
IC50 (human TTK; [7]): < 100 nM

SMILES: Cc1cc(-c2cnn3c(NCCN4CCC(O)CC4)cc(Oc4cccc(F)c4)nc23)ccc1C(=O)NC1CC1 [Example C182]
GI50 [1]: ≤ 100 nM
GI50 [2]: ≤ 100 nM
GI50 [3]: ≤ 100 nM
GI50 [4]: ≤ 100 nM
GI50 [5]: ≤ 100 nM
IC50 (human TTK; [6]): < 100 nM

SMILES: Cc1cc(-c2cnn3c(NC[C@H]4CC[C@H](O)CC4)cc(Oc4cccnc4)nc23)ccc1C(=O)NC1CC1 [Example C177]
GI50 [1]: 100 to 500 nM
GI50 [2]: 100 to 500 nM
GI50 [3]: 100 to 500 nM
GI50 [4]: ≤ 100 nM
GI50 [5]: ≤ 100 nM
IC50 (human TTK; [6]): < 100 nM

Now from value to molecule:

GI50 [1]: ≤ 100 nM
GI50 [2]: ≤ 100 nM
GI50 [3]: ≤ 100 nM
GI50 [4]: ≤ 100 nM
GI50 [5]: ≤ 100 nM
IC50 (human TTK; [6]): < 100 nM
SMILES: Cc1cc(-c2cnn3c(NCC4CC4)cc(N[C@H]4CCCC[C@H]4O)nc23)ccc1C(=O)NC1CC1 [Example C42, N-cyclopropyl-4-(7-((cyclopropylmethyl)amino)-5-(((1S,2R)-2-hydroxycyclohexyl)amino)pyrazolo[1,5-a]pyrimidin-3-yl)-2-methylbenzamide]

GI50 [1]: 100 to 500 nM
GI50 [2]: 100 to 500 nM
GI50 [3]: 100 to 500 nM
GI50 [4]: 100 to 500 nM
GI50 [5]: 100 to 500 nM
IC50 (human TTK; [6]): < 100 nM
SMILES: Cc1cc(-c2cnn3c(NC[C@H]4C[C@H](O)C4)cc(NC4CCOCC4)nc23)ccc1C(=O)NC1CC1 [Example C145]

GI50 [1]: ≤ 100 nM
GI50 [2]: ≤ 100 nM
GI50 [3]: ≤ 100 nM
GI50 [4]: 100 to 500 nM
GI50 [5]: ≤ 100 nM
IC50 (human TTK; [6]): < 100 nM
SMILES: Cc1cc(-c2cnn3c(NCC4CCOCC4)cc(NC4(CO)CCCC4)nc23)ccc1C(=O)NC1CC1 [Example C45]

GI50 [1]: ≤ 100 nM
GI50 [2]: 100 to 500 nM
GI50 [3]: 100 to 500 nM
GI50 [4]: 100 to 500 nM
GI50 [5]: 100 to 500 nM
IC50 (human TTK; [6]): < 100 nM
SMILES: Cc1cc(-c2cnn3c(NCC4CCOCC4)cc(N[C@@H]4CCCC[C@@H]4O)nc23)ccc1C(=O)NC1CC1 [Example C118]

GI50 [1]: ≤ 100 nM
GI50 [2]: 100 to 500 nM
GI50 [3]: 100 to 500 nM
GI50 [4]: ≤ 100 nM
GI50 [5]: ≤ 100 nM
IC50 (human TTK; [6]): < 100 nM
SMILES: Cc1cc(-c2cnn3c(NCC4CCOCC4)cc(N[C@H](CO)CC(C)C)nc23)ccc1C(=O)NC1CC1 [Example C130]

GI50 [1]: ≤ 100 nM
GI50 [2]: 100 to 500 nM
GI50 [3]: 100 to 500 nM
GI50 [4]: 100 to 500 nM
GI50 [5]: ≤ 100 nM
IC50 (human TTK; [6]): < 100 nM
SMILES: Cc1cc(-c2cnn3c(NCC4CCOCC4)cc(N[C@H](CO)C4CCCC4)nc23)ccc1C(=O)NC1CC1 [Example C165]

GI50 [1]: ≤ 100 nM
GI50 [2]: ≤ 100 nM
GI50 [3]: ≤ 100 nM
GI50 [4]: ≤ 100 nM
GI50 [5]: ≤ 100 nM
IC50 (human TTK; [6]): < 100 nM
SMILES: Cc1cc(-c2cnn3c(NCC4CCOCC4)cc(N[C@H]4CCCC[C@H]4O)nc23)ccc1C(=O)NC1CC1 [Example C39, N-cyclopropyl-4-(5-(((1S,2R)-2-hydroxycyclohexyl)amino)-7-(((tetrahydro-2H-pyran-4-yl)methyl)amino)pyrazolo[1,5-a]pyrimidin-3-yl)-2-methylbenzamide]
